Here are results for 11 molecules from ChEMBL document CHEMBL1133210, “Synthesis of tetrakis(multifluoro-4-pyridyl)porphin derivatives as acetylcholinesterase inhibitors” (Bioorg Med Chem Lett, 2000).

SMILES strings stand for the structures. pKi: −log10 of the molar value.

Sequence of Acetylcholinesterase (O42275 whole entry): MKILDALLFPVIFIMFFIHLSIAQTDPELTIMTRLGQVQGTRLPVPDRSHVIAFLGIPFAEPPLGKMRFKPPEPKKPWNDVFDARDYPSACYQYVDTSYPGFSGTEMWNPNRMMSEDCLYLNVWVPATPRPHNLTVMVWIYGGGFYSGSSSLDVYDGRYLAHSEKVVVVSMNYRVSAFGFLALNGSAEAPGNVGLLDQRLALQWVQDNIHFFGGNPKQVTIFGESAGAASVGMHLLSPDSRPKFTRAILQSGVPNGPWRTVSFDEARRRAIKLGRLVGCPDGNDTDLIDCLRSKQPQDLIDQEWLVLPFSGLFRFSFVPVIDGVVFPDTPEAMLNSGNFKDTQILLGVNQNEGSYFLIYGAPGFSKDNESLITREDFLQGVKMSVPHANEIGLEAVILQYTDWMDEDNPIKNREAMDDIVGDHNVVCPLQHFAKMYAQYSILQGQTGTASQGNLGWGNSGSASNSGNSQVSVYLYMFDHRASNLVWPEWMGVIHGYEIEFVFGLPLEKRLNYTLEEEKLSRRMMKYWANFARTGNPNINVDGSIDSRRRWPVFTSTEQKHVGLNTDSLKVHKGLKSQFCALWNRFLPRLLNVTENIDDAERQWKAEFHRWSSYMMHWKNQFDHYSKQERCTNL

One assay has as its target Acetylcholinesterase (Electrophorus electricus, UniProt O42275). The experiment in a line: Inhibition constant (Ki) against electric eel Acetylcholinesterase as Km/Vmax versus inhibitor concentration replot.
With `Fc1ccc(-c2c3nc(c(-c4ccc(F)cc4F)c4ccc([nH]4)c(-c4ccc(F)cc4F)c4ccc([nH]4)c(-c4ccc(F)cc4F)c4nc2C=C4)C=C3)c(F)c1`, the pKi is 7.92.

Consider `Oc1ccccc1-c1c2nc(c(-c3ccccc3O)c3ccc([nH]3)c(-c3ccccc3O)c3ccc([nH]3)c(-c3ccccc3O)c3nc1C=C3)C=C2`, for which the pKi was 4.74.

`Oc1ccc(O)c(-c2c3nc(c(-c4cc(O)ccc4O)c4ccc([nH]4)c(-c4cc(O)ccc4O)c4ccc([nH]4)c(-c4cc(O)ccc4O)c4nc2C=C4)C=C3)c1` showed a pKi of 5.60.

`Fc1cnc(F)c(F)c1-c1c2nc(c(-c3c(F)cnc(F)c3F)c3ccc([nH]3)c(-c3c(F)cnc(F)c3F)c3ccc([nH]3)c(-c3c(F)cnc(F)c3F)c3nc1C=C3)C=C2` had a pKi of 5.55.

As to `Fc1nc(F)c(F)c(-c2c3nc(c(-c4c(F)c(F)nc(F)c4F)c4ccc([nH]4)c(-c4c(F)c(F)nc(F)c4F)c4ccc([nH]4)c(-c4c(F)c(F)nc(F)c4F)c4nc2C=C4)C=C3)c1F`, the pKi was 5.14.

With `Fc1cccc(F)c1-c1c2nc(c(-c3c(F)cccc3F)c3ccc([nH]3)c(-c3c(F)cccc3F)c3ccc([nH]3)c(-c3c(F)cccc3F)c3nc1C=C3)C=C2`, the pKi was 8.30. This pKi lies 3.16 log units higher than the previous one.

`Fc1cnccc1-c1c2nc(c(-c3ccncc3F)c3ccc([nH]3)c(-c3ccncc3F)c3ccc([nH]3)c(-c3ccncc3F)c3nc1C=C3)C=C2` had a pKi of 5.29.

The molecule `Oc1cccc(-c2c3nc(c(-c4cccc(O)c4)c4ccc([nH]4)c(-c4cccc(O)c4)c4ccc([nH]4)c(-c4cccc(O)c4)c4nc2C=C4)C=C3)c1` had a pKi of 4.53. This pKi lies 0.76 log units lower than the previous one.

The molecule `Fc1cccc(-c2c3nc(c(-c4cccc(F)c4)c4ccc([nH]4)c(-c4cccc(F)c4)c4ccc([nH]4)c(-c4cccc(F)c4)c4nc2C=C4)C=C3)c1` had a pKi of 5.01.

Molecule `Fc1ccccc1-c1c2nc(c(-c3ccccc3F)c3ccc([nH]3)c(-c3ccccc3F)c3ccc([nH]3)c(-c3ccccc3F)c3nc1C=C3)C=C2` showed a pKi of 4.29.

Turning to `C[n+]1ccc(-c2c3nc(c(-c4cc[n+](C)cc4F)c4ccc([nH]4)c(-c4cc[n+](C)cc4F)c4ccc([nH]4)c(-c4cc[n+](C)cc4F)c4nc2C=C4)C=C3)c(F)c1.Cc1ccc(S(=O)(=O)[O-])cc1.Cc1ccc(S(=O)(=O)[O-])cc1.Cc1ccc(S(=O)(=O)[O-])cc1.Cc1ccc(S(=O)(=O)[O-])cc1`, the pKi was 5.51.

The next assay relates to Gallus gallus. The experiment in a line: Compound was tested in vivo for antiangiogenic activity (10 microg dose/ egg) on chorioallantoic membrane of growing chick embryos. Format: functional.
For the molecule `C[n+]1ccc(-c2c3nc(c(-c4cc[n+](C)cc4F)c4ccc([nH]4)c(-c4cc[n+](C)cc4F)c4ccc([nH]4)c(-c4cc[n+](C)cc4F)c4nc2C=C4)C=C3)c(F)c1.Cc1ccc(S(=O)(=O)[O-])cc1.Cc1ccc(S(=O)(=O)[O-])cc1.Cc1ccc(S(=O)(=O)[O-])cc1.Cc1ccc(S(=O)(=O)[O-])cc1`, the Inhibition amounted to 60%.

The pKi is the negative decadic logarithm of the Ki, by convention in mol/L. Read a low pKi as a large Ki. For orientation: Inhibition means the drop in the measured response relative to a control, in per cent. A low value points to a response near the control.
